According to the NIST ThermoML archive (doi:10.1021/acs.jced.7b00335):
Numbers after ± are expanded uncertainties.

Legend:
[1] = 100 kPa, Liquid; for viscosity: Concentric cylinders viscometry; for mass density: Vibrating tube method
[2] = xn = mol fraction of the nth substance listed; details: 100 kPa, Liquid, x2 = 0; for viscosity: Concentric cylinders viscometry; for mass density: Vibrating tube method

O=Cc1ccccc1 [benzaldehyde]
[1]
Details | mass density [kg/m3] | viscosity [mPa·s]
293.15 K | 1046.3 ± 1 | 1.52 ± 0.06
298.15 K | 1041.7 ± 1 | 1.41 ± 0.06
303.15 K | 1037.1 ± 1 | 1.31 ± 0.05
308.15 K | 1032.4 ± 1 | 1.22 ± 0.05
313.15 K | 1027.9 ± 1 | 1.15 ± 0.05
318.15 K | 1023.4 ± 1 | 1.09 ± 0.04
323.15 K | 1019.1 ± 1 | 1.03 ± 0.04

CCC(C)O (stereo not drawn) [butan-2-ol]
[1]
Details | mass density [kg/m3] | viscosity [mPa·s]
293.15 K | 806.7 ± 1 | 3.67 ± 0.15
298.15 K | 802.7 ± 1 | 3.04 ± 0.12
303.15 K | 798.4 ± 1 | 2.54 ± 0.1
308.15 K | 794.1 ± 1 | 2.13 ± 0.09
313.15 K | 789.8 ± 1 | 1.8 ± 0.07
318.15 K | 785.2 ± 1 | 1.54 ± 0.06
323.15 K | 780.6 ± 1 | 1.33 ± 0.05

CCC(C)O (stereo not drawn) [butan-2-ol] + O=Cc1ccccc1
[2]
Details | mass density [kg/m3] | viscosity [mPa·s]
293.15 K | 806.7 ± 1 | 3.67 ± 0.15
298.15 K | 802.7 ± 1 | 3.04 ± 0.12
303.15 K | 798.4 ± 1 | 2.54 ± 0.1
308.15 K | 794.1 ± 1 | 2.13 ± 0.09
313.15 K | 789.8 ± 1 | 1.8 ± 0.07
318.15 K | 785.2 ± 1 | 1.54 ± 0.06
323.15 K | 780.6 ± 1 | 1.33 ± 0.05

CCCC(C)O (stereo not drawn) [pentan-2-ol]
[1]
Details | mass density [kg/m3] | viscosity [mPa·s]
293.15 K | 809.3 ± 1 | 3.97 ± 0.16
298.15 K | 805.3 ± 1 | 3.32 ± 0.13
303.15 K | 801.2 ± 1 | 2.81 ± 0.11
308.15 K | 797 ± 1 | 2.37 ± 0.1
313.15 K | 792.7 ± 1 | 1.99 ± 0.08
318.15 K | 788.4 ± 1 | 1.66 ± 0.07
323.15 K | 784 ± 1 | 1.39 ± 0.06

CCCC(C)O (stereo not drawn) [pentan-2-ol] + O=Cc1ccccc1
[2]
Details | mass density [kg/m3] | viscosity [mPa·s]
293.15 K | 809.3 ± 1 | 3.97 ± 0.16
298.15 K | 805.3 ± 1 | 3.32 ± 0.13
303.15 K | 801.2 ± 1 | 2.81 ± 0.11
308.15 K | 797 ± 1 | 2.37 ± 0.1
313.15 K | 792.7 ± 1 | 1.99 ± 0.08
318.15 K | 788.4 ± 1 | 1.66 ± 0.07
323.15 K | 784 ± 1 | 1.39 ± 0.06

CC(C)O [propan-2-ol]
[1]
Details | mass density [kg/m3] | viscosity [mPa·s]
293.15 K | 785.4 ± 1 | 2.42 ± 0.1
298.15 K | 781.1 ± 1 | 2.08 ± 0.08
303.15 K | 776.8 ± 1 | 1.8 ± 0.07
308.15 K | 772.4 ± 1 | 1.56 ± 0.06
313.15 K | 768 ± 1 | 1.36 ± 0.06
318.15 K | 763.4 ± 1 | 1.19 ± 0.05
323.15 K | 758.8 ± 1 | 1.05 ± 0.04

CC(C)O [propan-2-ol] + O=Cc1ccccc1
[2]
Details | mass density [kg/m3] | viscosity [mPa·s]
293.15 K | 785.4 ± 1 | 2.42 ± 0.1
298.15 K | 781.1 ± 1 | 2.08 ± 0.08
303.15 K | 776.8 ± 1 | 1.8 ± 0.07
308.15 K | 772.4 ± 1 | 1.56 ± 0.06
313.15 K | 768 ± 1 | 1.36 ± 0.06
318.15 K | 763.4 ± 1 | 1.19 ± 0.05
323.15 K | 758.8 ± 1 | 1.05 ± 0.04
